From patent publication EP0321208A1, “Improvements in or relating to avian control” (priority 1987, dated 1989)

What was measured:
quail chymotrypsin = test: ATEE assay: inhibition of quail intestinal chymotrypsin activity; assay type: biochemical, Japanese quail; details: compound 1 x 10⁻⁵M; ATEE substrate; percentage inhibition of control activity ± standard deviation (n = 3); 5 min, 10 µM
Description: The substrate was prepared by dissolving ATEE (10 mg) in Tris-HCl buffer of pH 7.5 containing 30% (v/v) of methanol (25 ml). The quail intestine protease activity was partially purified as described above prior to testing for chymotrypsin activity. The reaction was carried out in a quartz cuvette (1 x 0.25 x 1 cm³) containing substrate (1 ml) and 100 mM Tris-HCl buffer (200 µl). The reaction was started by the addition of the partially purified intestine protease (200 µl) and followed bv the decrease in absorbance at 237 nm over a 5 minute period. All determinations were carried out in triplicate against a reagent blank.

pigeon trypsin = test: TAME assay: inhibition of pigeon intestinal trypsin activity; assay type: biochemical; details: for Inhibition of Activity: compound 60 µg/ml, TAME substrate, percentage inhibition of control activity ± standard deviation (n = 3), 5 min
Description: (§1) Dried avian intestine powder (500 mg) was extracted for 30 minutes in 1 mM HC₁ (5 ml). The extract was centrifuged at 22,000 x g for 30 minutes at 4°C. The resultant supernatant was applied to a column of Sephadex G-50, medium grade (360 mm x 15 mm) and eluted with 0.5 mM HCl at 0.7 ml/min. Fractions (3.5 ml) were collected and tested for the presence of protein by determining their absorbance at 280 nm. The proteinaceous fractions were bulked and concentrated by passing them through an ultrafiltration unit (YM 30 filter). The concentrate was collected and kept at 4°C throughout its use.
The substrate was prepared by dissolving TAME (19 mg) in a mixture of 100 mM Tris-HCl buffer of pH 7.5 (50 ml) and 5% (w/v) calcium chloride solution (2 ml). The pigeon intestine protease was partially purified as described above prior to testing for trypsin activity. The reaction was carried out in a quartz cuvette (1 x 0.25 x 1 cm³) containing substrate (3 ml) and 100 mM Tris-HCl buffer pH 7.5 (100 µl). The reaction was started by the addition of the partially purified intestine protease (100 µl) and followed by the decrease in absorbance at 247 nm over a 5 minute period.
(§2) In both the chymotrypsin and the trypsin assays a control was however carried out using the 200 µl of buffer containing no added compound.

feral pigeons [1] = test: Four day two-choice feeding test with feral pigeons; assay type: in vivo; details: for Mean consumption of treated food: four day two-choice, 0.5% w/w compound/pellet; for deterrent effect on food consumption: two-choice test, proportions of treated and untreated food consumed, statement in words
Description: (§3) Feral pigeons were transferred from a communal outdoor aviary to individual cages and maintained on a 10 hour light - 14 hour dark cycle. Birds were gradually weaned away from their normal diet of maize, wheat and maple peas to a standard laboratory diet of turkey starter pellets.
(§4) The pellets were oven dried and then left to absorb atmospheric moisture. The control food was sprayed with the same volume of acetone/water mixture.
(§5) A group of 35 feral pigeons was caged individually for the trials which used eight compounds of formula (I) together with sucrose octaacetate and dimethyl anthranilate, both of which are substances which are known to be avian repellents. Each bird was subjected to treatment with each compound in a random order subject to the limitation of a latin square design. Each treatment was presented to the birds in no-choice and two-choice conditions. The no-choice phase lasted 3 days, during which a bird was presented with a single bowl containing 120 g of treated food. Each bird was weighed before and after the no-choice phase, as was the amount of food remaining. There immediately followed a two-choice phase in which the birds could choose between food treated with a given chemical and a bowl containing otherwise identical pellets without the chemical (the control treatment utilising two bowls of acetone/water treated pellets, one of which was arbitrarily selected as the control). The two-choice phase lasted four days during which food consumption was monitored daily. The position of the food bowls was alternated each day in order to overcome the confusing of food preference with position preference and ample water and grit were supplied throughout the trial.
The data obtained in the four day two-choice test is presented in Table 5 for mean consumption of treated food. […]

feral pigeons [2] = test: Three day no-choice feeding test with feral pigeons; assay type: in vivo; details: 0.5% w/w compound/pellet, ± standard deviation; for Mean weight difference: after the test compared with before; for Mean consumption: treated food
Description: as §3, §4, §5

Japanese quail [3] = test: No choice feeding trial with Japanese quail; assay type: in vivo; details: 5,000 ppm additive in turkey starter crumbs, 14 days, ± standard deviation
Excerpt: (§6) (A) Six week old female japanese quail were preconditoned by weighing them seven days before the start of the feeding trial. Five quail were placed in each of four cages and each cage was provided with a different diet, these being (a) a control diet of standard turkey starter crumbs (TSC), (b) TSC treated with 5,000 ppm cinnamamide, (c) TSC treated with 5,000 ppm 4-hydroxy-3,5-dimethoxycinnamic acid, and (d) TSC treated with 2,500 ppm cinnamamide + 2,500 ppm 4-hydroxy-3,5-dimethoxycinnamic acid. The treated TSC was prepared in each case by dissolving/-suspending the compound or compounds in diethyl ether (1500 ml) and mixing this with TSC (2000 g) at 0.25% or 0.5% w/w concentration compound/TSC in an industrial food mixer for 1 hour to evaporate off the diethyl ether and produce a homogeneous mixture. The control was prepared by mixing TSC (2000 g) with diethyl ether for 1 hour in an industrial food mixer. The amount of each diet consumed and the weight gain of the birds was recorded on a daily basis for a period of 14 days. The trial was carried out in duplicate.
The results of the trial are presented in Table 2, together with the standard deviation. It will be seen that diets (b) and (d) produced a decreased increase in body weight as compared with the control diet (a). It should be appreciated that increased consumption, which apparently occurs with diets (c) and (d), can be the result of a compensation against the occurrence of the enzyme inhibitory effect and a consequent reduction in value of the food consumed.

bullfinch trypsin = test: BAEE assay: inhibition of bullfinch intestinal trypsin activity; assay type: biochemical; details: compound 1 x 10⁻⁵M; BAEE substrate; percentage inhibition of control activity ± standard deviation (n = 3); 7 min, 10 µM
Description: as §1
The substrate was prepared bv dissolving BAEE (10 mg) in a mixture of 50 mM Tris-HCl buffer of pH 7.5 (24 ml) and 5% (w/v) calcium chloride solution (1 ml). The bullfinch intestine protease activity was partially purified as described above prior to testing for trypsin activity. The reaction was carried out in a quartz cuvette (1 x 0.25 x 1 cm³) containing substrate (1 ml) and 50 mM Tris-HCl buffer (200 µl). The reaction was started by the addition of the partially purified intestine protease 1200 µl) and followed by the decrease in absorbance at 253 nm over a 7 minute period. All determinations were carried out in triplicate against a reagent blank.
as §2

Japanese quail [4] = test: Feeding trial with choice, Japanese quail; assay type: in vivo; details: for Increase in body weight: value is for the birds offered both diets; for Average food eaten: treated diet eaten
Excerpt: as §6
(B) In a variation of the treatment decribed in (A) four quail were placed in each of four cages and each cage was offered a choice between a control diet of TSC and TSC treated with one of (a) 5,000 ppm cinnamamide, (b) 2,500 ppm cinnamamide, (c) 1,000 ppm cinnamamide, and (d) 2,500 ppm cinnamamide + 2,500 ppm 4-hydroxy-3,5-dimethoxycinnamic acid. The various diets were prepared as described under (A).
The results of the trial are presented in Table 3, together with the standard deviation. It will be seen that in each case the birds consume less treated than untreated food and that although the weight gain was the least for the birds offered the control + 5,000 ppm cinnamamide diets, it was the 2,500 ppm cinnamamide + 2,500 ppm 4-hydroxy-3,5-dimethoxycinnamic acid diet which was least consumed.

[5] = choice between control diet and diet with 1,000 ppm additive
[6] = choice between control diet and diet with 2,500 ppm additive
[7] = choice between control diet and diet with 5,000 ppm additive

SMILES	Inhibition of Activity Chymotrypsin (quail chymotrypsin)	Inhibition of Activity (pigeon trypsin)	Mean consumption of treated food (feral pigeons [1])	Mean weight difference (feral pigeons [2])	Mean consumption (feral pigeons [2])	other results
O=C(O)Cc1ccccc1 [Phenylacetic acid, reference compound]	13 ± 2 percentage	–	–	–	–	–
O=C(C=Cc1ccc(O)c(O)c1)OC1CC(O)(C(=O)O)CC(O)C1O (stereo not shown) [3-(3',4'-Dihydroxycinnamoyl)-quinic acid]	–	3 ± 1 percentage	–	–	–	–
CC(=O)OC[C@H]1O[C@@](COC(C)=O)(O[C@H]2O[C@H](COC(C)=O)[C@@H](OC(C)=O)[C@H](OC(C)=O)[C@H]2OC(C)=O)[C@@H](OC(C)=O)[C@@H]1OC(C)=O [Sucrose octaacetate, reference compound]	–	–	28.6 ± 2.4 grams	2.3 ± 0.9 grams	54.0 ± 2.6 grams	–
COc1cc(C=CC(=O)O)cc(OC)c1O [4-Hydroxy-3,5-dimethoxy-cinnamic acid, 4-Hydroxy-3,5-dimethoxycinnamic acid]	94 ± 2 percentage	16 ± 4 percentage	29.2 ± 2.8 grams	2.3 ± 0.9 grams	60.2 ± 3.3 grams	Average food eaten (Japanese quail [3]): 21 ± 0.3 g/bird/day; Increase in body weight (Japanese quail [3]): 0.89 ± 0.10 g/bird/day; Inhibition of Activity Trypsin (bullfinch trypsin): 22 ± 2 percentage
NC(=O)C=Cc1ccccc1 [Cinnamamide, cinnamamide]	5 ± 1 percentage	0 percentage	6.0 ± 1.5 grams	-16.2 ± 1.3 grams	22.3 ± 2.7 grams	deterrent effect on food consumption (feral pigeons [1]): most marked; Increase in body weight (Japanese quail [4]; [5]): 1.29 ± 0.10 g/bird/day; Increase in body weight (Japanese quail [4]; [6]): 1.34 ± 0.20 g/bird/day; Increase in body weight (Japanese quail [4]; [7]): 0.66 ± 0.10 g/bird/day; deterrent effect on food consumption (Japanese quail [4]; quail, statement in words): a deterrent effect on food consumpton was noted; Average food eaten (Japanese quail [4]; [5]): 6 ± 0.2 g/bird/day; Average food eaten (Japanese quail [4]; [6]): 5 ± 0.4 g/bird/day; Average food eaten (Japanese quail [4]; [7]): 4 ± 0.2 g/bird/day; Average food eaten (Japanese quail [3]): 17 ± 0.3 g/bird/day; Increase in body weight (Japanese quail [3]): 0.14 ± 0.04 g/bird/day; activity against pigeon intestinal trypsin (pigeon trypsin; statement in words): no activity was observed; Inhibition of Activity Trypsin (bullfinch trypsin): 64 ± 2 percentage
O=C(O)CCc1ccccc1 [Hydrocinnamic acid]	19 ± 3 percentage	–	–	–	–	–
CNc1ccccc1C(=O)OC [Dimethylanthranilate, Dimethyl anthranilate, reference compound]	–	9 ± 2 percentage	18.2 ± 2.4 grams	-4.8 ± 2.0 grams	45.9 ± 2.9 grams	–
O=C(O)c1ccccc1 [Benzoic acid, reference compound]	14 ± 1 percentage	–	–	–	–	–
COc1cc(C=CC(=O)O)cc(OC)c1 [3,5-Dimethoxycinnamic acid]	63 ± 1 percentage	14 ± 1 percentage	12.1 ± 1.7 grams	-12.9 ± 1.2 grams	33.1 ± 1.5 grams	deterrent effect on food consumption (feral pigeons [1]): most marked
O=C(O)C=Cc1ccc(O)cc1 [4-Hydroxycinnamic acid, 4-hydroxycinnamic acid]	12 ± 1 percentage	–	–	–	–	–
OCC=Cc1ccccc1 [Cinnamyl alcohol]	20 ± 6 percentage	–	–	–	–	–
N#CC=Cc1ccccc1 [Cinnamonitrile]	23 ± 1 percentage	–	–	–	–	–
COc1cc(C=CC(=O)O)ccc1O [4-Hydroxy-3-methoxycinnamic acid]	–	16 ± 4 percentage	22.7 ± 2.4 grams	-0.2 ± 1.1 grams	54.5 ± 2.9 grams	–
CC(C=O)=Cc1ccccc1 [α-Methylcinnamaldehyde]	17 ± 5 percentage	–	–	–	–	–
CC(=Cc1ccccc1)C(=O)O [α-Methylcinnamic acid]	36 ± 3 percentage	–	–	–	–	–
COc1cc(C(=O)O)cc(OC)c1O [4-Hydroxy-3,5-dimethoxy-benzoic acid, reference compound]	2 ± 2 percentage	–	–	–	–	–
COc1ccc(C=CC(=O)O)cc1OC [3,4-Dimethoxycinnamic acid]	83 ± 3 percentage	16 ± 1 percentage	27.1 ± 2.8 grams	-1.1 ± 0.9 grams	55.3 ± 2.3 grams	–
COc1cccc(C=CC(=O)O)c1 [3-Methoxycinnamic acid]	56 ± 4 percentage	–	–	–	–	–
O=C(O)C=Cc1cccc(O)c1 [3-Hydroxycinnamic acid]	43 ± 2 percentage	–	–	–	–	–
COc1cc(C=CC(=O)O)cc(OC)c1OC [3,4,5-Trimethoxycinnamic acid]	88 ± 2 percentage	0 percentage	19.8 ± 2.7 grams	-1.5 ± 0.9 grams	53.0 ± 2.1 grams	deterrent effect on food consumption (feral pigeons [1]): most marked; Inhibition of Activity Trypsin (bullfinch trypsin): 36 ± 1 percentage
O=CC=Cc1ccccc1 [Cinnamaldehyde]	57 ± 4 percentage	–	–	–	–	–
